Measured values from PubChem BioAssay AID1918937 (Molecular Pharmacology Branch, DTP, NCI, 2023).
“And” between values parts separate entries of the source, which are not always exact repeats. Identical values can stand only once.
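Also: spheroids exposed to agents for seven days; percent of DMSO vehicle control luminescence viability.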

The molecules below were run on 521955-158-R2-J5-PDC complex spheroid viability (assay: Anticancer human tumor 521955-158-R2-J5-PDC patient-derived pancreatic carcinoma cell line growth inhibition). Details: compound 0.01 µM; stronger effect = lower value.
Description: Multicellular complex tumor spheroid response to LSD1 Inhibitor Iadademstat in combination with a variety of drugs and investigational agents in selected tumor cell lines
The current study was undertaken to assess response to LSD1 inhibitors in combination with standard-of-care drugs and investigational agents in solid tumor complex spheroid models as well as in the K-562 leukemia. Complex spheroids include a stromal component modeled by human endothelial cells (HUVEC) and fibroblasts modeled by human mesenchymal stem cells (MSCs). The concentration ranges selected for each drug and investigational agent were based upon clinically achievable concentrations if the clinical Cmax of the agent was known.
Compounds. The drugs and investigational agents used in this study are listed on Table 1. All of the agents used, including staurosporine (NSC755774) and gemcitabine (NSC613327), were obtained from the Developmental Therapeutics Program, NCI. FDA-approved anticancer drugs are available from the NCI at http://dtp.nci.nih.gov/branches/dscb/oncology_drugset_explanation.html. Drugs and investigational agents were >95% pure by proton nuclear magnetic resonance (NMR) and liquid chromatography/mass spectrometry (LC/MS). Stock solutions were prepared at 400x in DMSO, stored at -70 degrees C, and diluted in fresh medium prior to their use. The final concentration of DMSO in cell culture wells never exceeded 0.25% (v/v). The FDA-approved anticancer drug set is available from the Developmental Therapeutics Program at https://dtp.cancer.gov/organization/dscb/obtaining/available_plates.htm. All drugs and investigational agents were tested over a range starting from a high concentration at or near the clinical Cmax and decreasing in half-log increments. If the clinical Cmax for an agent had not been determined, the highest concentration tested was 10 microM.
Cell Lines. The patient-derived cancer cell (PDC) lines: 292921-168-R-J2-PDC, K24384-001-R-PDC, and 521955-158-R2-J5-PDC pancreatic carcinomas, 556581-035-R-J1 ovarian carcinoma, 324938-238-R-J1-PDC, 855422-203-R-J1-PDC and 883617-216-R-J1-PDC urothelial bladder carcinomas, 743489-274-T-PDC renal cell carcinoma, 138582-R-J1 Merkel cell tumor, K60290-347-R-J1 and K57222-313-R-J1-PDC glioblastomas, 653999-131-R-J2-PDC, LG0703-F948-PDC, and 349418-098-R-PDC non-small cell lung carcinomas, 885512-296-R-J2-PDC, 171881-019-R-J1-PDC breast carcinomas and 186277-243-T-J2-PDC and 233499-124-R-J2-PDC colon carcinomas were obtained from the NCI Patient-Derived Models Repository (PDMR, https://pdmr.cancer.gov). The established cell lines NCI/ADR-RES (RRID:CVCL_14520 and OVCAR-5 (RRID:CVCL_1628) ovarian carcinomas, 786-O (RRID:CVCL_1051) and A498 (RRID:CVCL_A498) renal cell carcinoma, NCI-H211 (ATCC, cat. CRL-5824; RRID:CVCL_1529), NCI-H196 (ATCC, cat. CRL-5823, RRID:CVCL_1509), SW 1271 (ATCC, cat. CRL-2177, RRID:CVCL_1716) and NCI-H1876 (ATCC, cat. CRL-5902, RRID:CVCL_1503) small cell lung carcinomas, MDA-MB-231 (RRID:CVCL_0062) and MDA-MB-468 (RRID:CVCL_0419)breast carcinomas (10-12). Pooled donor human umbilical vein endothelial cells (HUVEC, Lonza, cat. CC-2519) and human mesenchymal stem cells (hMSC, Lonza, cat. PT-2501) were purchased from Lonza (Walkersville, MD).
Cell Culture. All cells were maintained in an incubator at 37 degrees C and 5% CO2 with 95% humidity. The PDC lines were cultured according to standard operating procedures established by the NCI PDMR (https://pdmr.cancer.gov). Briefly all PDCs were thawed and cultured in Matrigel-coated flasks prepared with a working solution of 1X Ham's F-12 nutrient mix, without supplementation (Invitrogen, Waltham, MA, cat. 11765054), 100 U/mL penicillin-streptomycin (Invitrogen, cat. 15140122), and 2.5% Matrigel (Corning Inc., Corning, NY, cat. 354248) for the first three passages. […]
For O=C(C=Cn1cnc(-c2cc(C(F)(F)F)cc(C(F)(F)F)c2)n1)NNc1cnccn1, the viability, T/C was 36.4% and 61.1%.

Same assay, conditions: compound 0.03 µM; stronger effect = lower value
With CCN(c1cc(-c2ccc(CN3CCOCC3)cc2)cc(C(=O)NCc2c(C)cc(C)[nH]c2=O)c1C)C1CCOCC1 the viability, T/C was 100% and 106%. In the case of CCc1c2c(nc3ccc(O)cc13)-c1cc3c(c(=O)n1C2)COC(=O)[C@]3(O)CC, the viability, T/C is reported as 0.53% and 1.39%. With COc1cc(C2c3cc4c(cc3C(OC3OC5COC(C)OC5C(O)C3O)C3COC(=O)C23)OCO4)cc(OC)c1O (configuration not stated) the viability, T/C was 88.7% and 100%. For NS(=O)(=O)OCC1CC(n2ccc3c(NC4CCc5ccccc54)ncnc32)CC1O (configuration not stated), the viability, T/C was 51.8% and 75%. In the case of Nc1ccccc1NC(=O)c1ccc(CNC(=O)OCc2cccnc2)cc1, the viability, T/C is reported as 102% and 112%. In the case of Nc1ccn(C2OC(CO)C(O)C2(F)F)c(=O)n1 (configuration not stated), the viability, T/C is reported as 73.4% and 89.6%. With Nc1ncn(C2CC(O)C(CO)S2)c(=O)n1 (configuration not stated) the viability, T/C was 93.2% and 90.9%. In the case of O=C(C=Cc1cccc(S(=O)(=O)Nc2ccccc2)c1)NO, the viability, T/C is reported as 108% and 119%.

Same assay, conditions: compound 0.0316 µM; stronger effect = lower value
With CC(C)CC(NC(=O)C(Cc1ccccc1)NC(=O)c1cnccn1)B(O)O (configuration not stated) the viability, T/C was 0.31% and 0.4%. CC(C)CC(NC(=O)CNC(=O)c1cc(Cl)ccc1Cl)B1OC(=O)CC(CC(=O)O)(C(=O)O)O1 (configuration not stated) was tested, and the viability, T/C was 0.46% and 1.77%. For CC(C)c1c(-c2ccccc2)nc2c(C#N)c[nH]n2c1=O, the viability, T/C was 104% and 98.1%. In the case of CC1(C)CCC(CN2CCN(c3ccc(C(=O)NS(=O)(=O)c4ccc(NCC5CCOCC5)c([N+](=O)[O-])c4)c(Oc4cnc5[nH]ccc5c4)c3)CC2)=C(c2ccc(Cl)cc2)C1, the viability, T/C is reported as 103% and 110%. For CC1COCCN1c1cc(-c2ccnn2C)c2ccnc(-c3ccn[nH]3)c2n1 (configuration not stated), the viability, T/C was 11.1% and 13%. CC1COCCN1c1cc(C2(S(C)(=N)=O)CC2)nc(-c2ccnc3[nH]ccc23)n1 (configuration not stated) was tested, and the viability, T/C was 108% and 112%. With CC[C@@]1(O)C(=O)OCc2c1cc1n(c2=O)Cc2cc3c(CN(C)C)c(O)ccc3nc2-1 the viability, T/C was 7.49% and 11.1%. COc1cc(Nc2ncc3c(n2)-c2ccc(Cl)cc2C(c2c(F)cccc2OC)=NC3)ccc1C(=O)O was tested, and the viability, T/C was 57.4% and 74.7%. With COc1ccc([C@@H](O)c2cc(-c3ncnc4cc(N5CCOCC5)ccc34)c(F)cc2Cl)nn1 the viability, T/C was 99.8% and 97.6%. With Cn1ncnc1C1c2n[nH]c(=O)c3cc(F)cc(c23)NC1c1ccc(F)cc1 (configuration not stated) the viability, T/C was 91.7% and 89.2%. Nc1ncn(C2CC(O)C(CO)O2)c(=O)n1 (configuration not stated) was tested, and the viability, T/C was 96.7% and 96.2%. O=C(C=Cn1cnc(-c2cc(C(F)(F)F)cc(C(F)(F)F)c2)n1)NNc1cnccn1 was tested, and the viability, T/C was 40.2% and 68%. For O=C(c1cc(Cc2n[nH]c(=O)c3ccccc23)ccc1F)N1CCN(C(=O)C2CC2)CC1, the viability, T/C was 95.7% and 102%.

Same assay, conditions: compound 0.0949 µM; stronger effect = lower value
CCN(c1cc(-c2ccc(CN3CCOCC3)cc2)cc(C(=O)NCc2c(C)cc(C)[nH]c2=O)c1C)C1CCOCC1 was tested, and the viability, T/C was 98.5% and 102%. With CCc1c2c(nc3ccc(O)cc13)-c1cc3c(c(=O)n1C2)COC(=O)[C@]3(O)CC the viability, T/C was 0.45% and 1.25%. In the case of COc1cc(C2c3cc4c(cc3C(OC3OC5COC(C)OC5C(O)C3O)C3COC(=O)C23)OCO4)cc(OC)c1O (configuration not stated), the viability, T/C is reported as 36.7% and 63.7%. With NS(=O)(=O)OCC1CC(n2ccc3c(NC4CCc5ccccc54)ncnc32)CC1O (configuration not stated) the viability, T/C was 24.6% and 38.1%. With Nc1ccccc1NC(=O)c1ccc(CNC(=O)OCc2cccnc2)cc1 the viability, T/C was 83.6% and 104%. In the case of Nc1ccn(C2OC(CO)C(O)C2(F)F)c(=O)n1 (configuration not stated), the viability, T/C is reported as 43% and 50.5%. With Nc1ncn(C2CC(O)C(CO)S2)c(=O)n1 (configuration not stated) the viability, T/C was 77.6% and 73.8%. In the case of O=C(C=Cc1cccc(S(=O)(=O)Nc2ccccc2)c1)NO, the viability, T/C is reported as 91.1% and 104%.

Same assay, conditions: compound 0.1 µM; stronger effect = lower value
For CC(C)CC(NC(=O)C(Cc1ccccc1)NC(=O)c1cnccn1)B(O)O (configuration not stated), the viability, T/C was 0.21% and 0.45%. CC(C)CC(NC(=O)CNC(=O)c1cc(Cl)ccc1Cl)B1OC(=O)CC(CC(=O)O)(C(=O)O)O1 (configuration not stated) was tested, and the viability, T/C was 0.41% and 0.54%. CC(C)c1c(-c2ccccc2)nc2c(C#N)c[nH]n2c1=O was tested, and the viability, T/C was 108% and 97.9%. With CC1(C)CCC(CN2CCN(c3ccc(C(=O)NS(=O)(=O)c4ccc(NCC5CCOCC5)c([N+](=O)[O-])c4)c(Oc4cnc5[nH]ccc5c4)c3)CC2)=C(c2ccc(Cl)cc2)C1 the viability, T/C was 112% and 110%. With CC1COCCN1c1cc(-c2ccnn2C)c2ccnc(-c3ccn[nH]3)c2n1 (configuration not stated) the viability, T/C was 18.1% and 21.3%. For CC1COCCN1c1cc(C2(S(C)(=N)=O)CC2)nc(-c2ccnc3[nH]ccc23)n1 (configuration not stated), the viability, T/C was 102% and 100%. CC[C@@]1(O)C(=O)OCc2c1cc1n(c2=O)Cc2cc3c(CN(C)C)c(O)ccc3nc2-1 was tested, and the viability, T/C was 6.01% and 6.55%.
